Laboratory results as given in PMC6934184, “Selective DNA-PKcs inhibition extends the therapeutic index of localized radiotherapy and chemotherapy” (The Journal of Clinical Investigation, 2019).

Target: T1, ACVRL1 (ALK1) (Homo sapiens, UniProt P37023)
T1 construct: purchased Thermo Fisher Scientific (Life Technologies) SelectScreen
Assay: SelectScreen LanthaScreen
Type: binding
Settings: read-out: % displacement
How it was run: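 Percent values come from Thermo SelectScreen profiling of NU5455, combining activity and binding assays. CSF1R was run in Z'LYTE format at Km app ATP, and CAMK1 in Adapta format with ATP listed at 10.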

T1 sequence (P37023 22-503): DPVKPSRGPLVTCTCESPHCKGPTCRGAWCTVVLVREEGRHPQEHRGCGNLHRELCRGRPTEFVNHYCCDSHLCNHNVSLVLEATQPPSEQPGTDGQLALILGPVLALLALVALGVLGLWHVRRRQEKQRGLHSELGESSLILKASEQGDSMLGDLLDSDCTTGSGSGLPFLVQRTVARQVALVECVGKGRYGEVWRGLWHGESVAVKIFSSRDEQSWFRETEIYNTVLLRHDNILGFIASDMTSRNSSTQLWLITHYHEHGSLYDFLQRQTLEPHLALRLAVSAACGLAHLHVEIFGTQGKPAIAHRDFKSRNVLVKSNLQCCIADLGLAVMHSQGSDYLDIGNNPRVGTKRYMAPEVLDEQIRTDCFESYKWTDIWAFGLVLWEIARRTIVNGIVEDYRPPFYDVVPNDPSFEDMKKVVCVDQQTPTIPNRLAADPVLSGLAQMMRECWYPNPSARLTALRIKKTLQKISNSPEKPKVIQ

## CN(C(=O)CN1CCOCC1)c1ccc2sc3c(-c4cccc5c(=O)cc(N6CC7CCC(C6)O7)oc45)cccc3c2c1 [NU5455]
  inhibition at 1 µM: 2.3%
